From patent US20170304169A1, “USE OF A COSMETIC COMPOSITION COMPRISING 10-HYDROXYSTEARIC ACID” (DSM IP ASSETS B.V., priority 2014, published 2017)

Legend:
Assay type in all cases: cell-based
[1] = tested on: Human skin from abdominal plastic surgery; assay: Skin viability (MTT) in human skin organ culture; settings: topical, 0.1, 1 and 10 mg/ml, day 6, MTT
Method: (§1) Human skin from abdominal plastic surgery has been used (donor[…]). Informed consent has been obtained. The skin phototype has been assayed with a spectro-colorimeter and classified as “BROWN” (ITA° angle=9.3°) (pigmentation scale: very light<light<intermediate<tanned<brown<dark) (Del Bino et al., Pigment Cell Research, 19. 2006).
(§2) The skin samples have been cut in pieces of approximately 8×3 mm (ø×thickness) and cultured up to day 6. Fourteen skin specimens have been used for each treatment. Two skin samples have been cultured to perform the skin viability test, six to perform the skin pigmentation and the collagen analyses and six for the SBC test.
Skin samples have been cultured in an air-liquid interface in a perforated ring of stainless steel in contact with culture medium (modified Williams' E medium) up to day 6. The culture medium has been renewed every three days (i.e. day 0-3).
Both the test samples and the controls have been applied topically and renewed daily. […]
After 6 days of incubation two skin biopsies have been weighed and, in case, reduced in the dermal portion, in order to have approximately the same weight for all of them. […] Subsequently the blue crystals have been solubilized and the color intensity, that is directly proportional to skin vitality, has been measured with a plate reader at a wavelength of 570 nm. […]

[2] = tested on: Collagen 1; assay: Collagen 1 synthesis in normal human fibroblasts (immunofluorescence, high content imaging); settings: 48 h, primary human fibroblasts; for collagen 1 induction (in words): increasing amounts of compound
Method: (§3) Human dermal fibroblasts isolated from a biopsy of a donor (Fb-D) were maintained in Dulbecco's modified Eagle's medium high glucose (DMEM) containing 10% fetal calf serum (FCS) and 1% penicillin/streptomycin (P/S). Cells were cultivated at 37° C. in a humidified 5% CO2-air atmosphere.
Human dermal fibroblasts were pre-cultured in DMEM 10% FCS 1% P/S for 24 h before being starved in DMEM low glucose containing 0.2% FCS and 1% P/S for 2.5 days. Starvation medium was then replaced and solubilized compounds were added and incubated for 48 h. After compound incubation cells were fixed in DPBS containing 4% formaldehyde for 15 min and permeabilized with DPBS 0.1% Triton-X100 for 90 sec. Collagen 1 was detected using mouse anti human collagen 1 antibody and the first antibody was detected with AlexaFluor 488 conjugated goat anti-mouse IgG. We counterstained nuclei with DAPI. Stained cells were analysed with the Thermo Fisher High Content Imaging System. There were acquired 49 pictures per well with a 10× objective and images were subsequently analysed using the “CellHealthProfiling” bioapplication v4. Collagen 1 was measured in a defined region around the nucleus and the fluorescence intensity values were normalized to cell count.
Following a pre-culture period, primary human fibroblasts were incubated for 48 h with increasing amounts of compound. Cells were then fixed and collagen 1 protein level was assessed by immunofluorescence. The experiment was repeated twice. After starvation fibroblasts were incubated for 48 h with increasing amounts of compound. TGF-β1 serves as positive control. Values given are fold collagen 1 induction compared with control cells. […] Collagen 1 induction reached 2.2 fold induction when 10-HSA was used at 5 μM.

[3] = tested on: p53; assay: p53 detection and quantification in UVB-irradiated human skin organ culture; settings: 0.1 mg/ml, UVB (1 J/cm2), human skin explants
Method: Cell culture was performed as in example 12 above.
Skin sections have been stained with the antibody for p53 (Abcam, #ab7757). The p53 positive cells have been counted and the obtained value have been divided upon the area covered by epidermis. Two slides of each skin sample have been processed by image acquisition and related analysis (i.e. 12 images for each test treatment).
(§4) All quantitative data have been summarized in terms of the mean score for each treatment. The measures of variation as standard deviation and standard error of mean (SEM) have been applied to the original scores. Differences between groups were evaluated by One-way anova with permutation test followed by pairwise post-hoc comparisons—Dunnett's permutation test and pairwise post hoc comparisons—Tukey's HSD permutation tests.

[4] = tested on: Type III collagen; assay: Collagen 3 synthesis in normal human fibroblasts (immunofluorescence, ArrayScan); settings: 48 h, human dermal fibroblasts
Method: Human dermal fibroblasts obtained from adult skin (donor) were seeded into 96-well plates (4000 cells/well) and cultured in Dulbecco's Modified Eagle Medium (DMEM) with 10% fetal calf serum (FCS) and 1% Penicillin/Streptomycin (Life Technologies, Lucerne, Switzerland) at 37° C. with 5% CO2 for 24 h. After medium was changed with DMEM Low Glucose containing 0.2% FCS and 1% Pen/Strep, the cells were incubated for another 2.5 days. Then, starvation medium was replaced with fresh medium containing the test compounds. After 48 h incubation the cells were fixed in Dulbecco's Phosphate-Buffered Saline (DPBS) containing 4% formaldehyde (Life Technologies, Lucerne, Switzerland) for 15 min and permeabilized with 0.1% Triton-X100 in DPBS for 90 sec.
Collagen 3 was detected using rabbit anti-human Type III collagen (BioTrend, Cologne, Germany), followed by the AlexaFluor 488 conjugated secondary IgG antibody (goat anti-rabbit IgG, Life Technologies, Lucerne, Switzerland). […]
Stained cells were analysed with the ArrayScan VTI HCS Reader (Thermo Fisher Scientific, Waltham, Mass., USA). The total of 49 pictures per well was acquired with a 10× objective and images were subsequently analysed using the “CellHealthProfiling” bioapplication v4. Collagen was measured in a defined region around the nucleus and the fluorescence intensity values were normalized to the cell count. […]

[5] = tested on: Human dermal fibroblasts; assay: Cytotoxicity measurement, MTT assay in human dermal fibroblasts; settings: normal human fibroblasts, 48 h
Method: as §3
Cytotoxicity was measured using the MTT assay according to the manufacturer's instructions. In brief: Fibroblasts (4000 cells/well, in 96-well cell culture plates from Nunc) were pre-cultured in DMEM 10% FCS 1% Penicillin/Streptomycin (P/S) for 24 h before being starved in DMEM low glucose containing 0.2% FCS and 1% P/S for 2.5 days. Starvation medium was then replaced and solubilized compounds were added and incubated for 48 h. Subsequently 10 μl MTT labelling reagent were added to each well (final concentration 0.5 mg/ml) and the microtiter plate was incubated for 4 h (37° C., 5% CO2). After addition of 100 μl solubilization solution into each well, the plate was allowed to stand overnight in the incubator (37° C., 5% CO2). The absorbance (OD) was measured in an absorbance plate reader at 550 nm.
Normal human fibroblasts treated with compounds for 48 h were assessed for viability using the MTT assay. Control values without compound were set to 100% viability.

[6] = tested on: MMP-1; assay: MMP-1 expression by RT-qPCR in UVB-irradiated human skin organ culture; settings: UVB (1 J/cm2), human skin explants
Method: Human skin from abdominal plastic surgery has been used (donor). Informed consent has been obtained. The skin phototype has been assayed with a spectro-colorimeter and classified as “LIGHT” (ITA° angle=50°) (pigmentation scale: very light<light<intermediate<tanned<brown<dark) (Del Bino et al., Pigment Cell Research, 19. 2006).
The skin samples have been cut in pieces of 8×3 mm (ø×thickness) and cultured up to day 2. Two skin samples for each treatment have been cultured to perform the MMP-1 analysis.
Skin samples have been cultured in an air-liquid interface in a perforated ring of stainless steel in contact with culture medium (modified Williams' E medium) up to day 2. The culture medium has been renewed every three days (i.e. day 0-3).
Both the test samples and the controls have been applied topically, renewed 1 hour prior of UVB irradiation. Right before the irradiation the treatments have been gently yet carefully removed from the skin samples. […]
For RT-qPCR analysis, total RNA have been extracted from full thickness skin using RNAeasy mini kit for fibrous tissues (Qiagen) following manufacturer's instructions. After quantification, 400 ng of total RNA have been retro-transcribed using random hexamers and Superscript III (Invitrogen). […]

[7] = tested on: Collagen 3; assay: Collagen 3 immunostaining in human skin organ culture; settings: topical, human skin explants
Method: as §1, §2
Skin samples have been cultured in an air-liquid interface in a perforated ring of stainless steel in contact with culture medium (modified Williams' E medium) up to day 6. […]
Skin sections have been immune-stained with the selected antibody. The amount of the antigen present in each slide has been evaluated by estimating the intensity and the distribution of the red within a selected area of the dermis using Image J (NIH-USA). […]
as §4, with “The measures of variation as standard deviation and standard error of mean (SEM) have been applied to the original scores.” left out

CCCCCCCCC(O)CCCCCCCCC(=O)O (centres unmarked) [10-HSA, 10-hydroxystearic acid]
skin viability [1]: did not affect skin viability | fold collagen 1 induction compared with control cells ([2]; 5 μM): 2.2 fold | collagen 1 induction (in words) [2]: dose dependent induction of collagen 1 | p53 UV-induced stimulation vs DMSO UV [3]: −46% | increase in type III collagen compared with medium treated cells ([4]; 5 μM): 244% | type III collagen synthesis (in words) ([4]; p<0.01 relative to medium control): significantly induced type III collagen synthesis in a dose-dependent manner | cytotoxic effect (reduction of cell survival to less than 80% compared to control cells) [5]: did not show any cytotoxic effect | MMP-1 expression in comparison to vehicle (DMSO), in words [6]: significantly and considerably reduced the expression of MMP-1 | increase in expression of collagen 3 ([7]; 0.1 mg/ml): +49% | increase in expression of collagen 3 ([7]; 1 mg/ml): +57%

CCCCCCCCCCCCCCCCCC(=O)O [stearic acid]
collagen 1 induction (in words) [2]: did not induced collagen 1 expression
